According to publication PMC11404609, “Gut microbiota-mediated C-sulfonate metabolism impairs the bioavailability and anti-cholestatic efficacy of andrographolide” (Gut Microbes, 2024):
Entries after “also recorded” stand apart in the source; their conditions may differ.

Tests used:
[1] = system: NF-κB and JNK/MAPK pathways; assay: RNA sequencing of liver: NF-κB and JNK/MAPK pathway genes; type: in vivo, mice; settings: ANIT+AP (200 mg/kg, i.p.) vs ANIT
Experimental: RNA in liver tissue was isolated from mice treated with ANIT and ANIT+AP (200 mg/kg, i.p.) and purified by TRIzol (Invitrogen, CA). The isolated RNA was quantified using Qubit 2.0 (Thermo Fisher Scientific, USA) following the manufacturer’s protocol. Libraries were prepared using the NEBNext® UltraTM RNA Library Prep Kit for Illumina® (NEB, USA) and sequenced on a Novaseq 6000 (Illumina, USA) at Novogene’s deep sequencing facility. Mapped reads from each sample were assembled using StringTie (v1.3.3b) in a reference-based approach, and featureCounts was used to quantify mapped reads. Differential expression analysis of two conditions/groups was performed using the DESeq2 R package (1.20.0).

[2] = system: ANIT-induced cholestatic liver injury; assay: Anti-cholestatic effect in ANIT-induced cholestatic liver injury (plasma ALT, AST, TBA, TBIL, liver H&E); type: in vivo, mice; settings: for anti-cholestatic effect: AP 200 mg/kg
Experimental: To investigate the impact of gut microbiota on the anti-cholestatic effect of AP, Control and ABX mice were divided into five groups, respectively: Vehicle, AP (200 mg/kg), ANIT (50 mg/kg), ANIT+AP (200 mg/kg), and ANIT+S-AMe (100 mg/kg).
Similarly, to investigate the impact of C-sulfonate metabolism on the anti-cholestatic effect of AP, mice were randomly divided into two groups: p.o. group (oral administration) and i.p. group (intraperitoneal injection). The p.o. group was further divided into six subgroups: Vehicle, AP (400 mg/kg), ANIT (50 mg/kg), ANIT+AP (100 mg/kg), ANIT+AP (200 mg/kg), ANIT+AP (400 mg/kg). While the i.p. group was divided into five subgroups: Vehicle, AP (200 mg/kg), ANIT (50 mg/kg), ANIT+AP (100 mg/kg), ANIT+AP (200 mg/kg).
Additionally, to investigate the effect of APS reductase inhibitor on the anti-cholestatic effect of AP, mice were randomly divided into Control and Inhibitor groups, each further divided into five subgroups: Vehicle, AP (200 mg/kg), ANIT (50 mg/kg), ANIT+AP (200 mg/kg), and ANIT+S-AMe (100 mg/kg). The mice received APS reductase inhibitor bromocriptine mesylate by oral gavage (20 mg/kg, p.o.) 2 weeks before AP treatment and continued until the end of the experiment. Furthermore, to investigate the important role of FXR in the anti-cholestatic effect of AP, WT and Fxr^-/- mice were, respectively, divided into the following groups: Vehicle, ANIT (50 mg/kg), and ANIT+AP (200 mg/kg).
In pharmacodynamic experiments, mice were administered AP at various dosages through different routes daily for a duration of 2 weeks. Additionally, S-AMe was administered at a dosage of 100 mg/kg via intraperitoneal injection (i.p.) daily for 2 weeks. A single dose of ANIT (50 mg/kg, p.o.) was administered 48 h before euthanizing the mice. At the conclusion of each experiment, the mice were euthanized, and blood samples were collected for biochemical analysis and tissue samples for histological examination and UPLC-MS/MS analysis.
Biochemical indicators of cholestatic liver injury, including alanine aminotransferase (ALT), aspartate aminotransferase (AST), total bile acid (TBA), and total bilirubin (TBIL), were assessed using assay kits obtained from Nanjing JianCheng Bioengineering Institute (Nanjing, China). The experimental procedures were conducted in accordance with the protocols provided by the manufacturer. Fresh liver tissues were fixed in 10% formalin, and prepared as 4-μm paraffin sections. These sections were stained with hematoxylin and eosin for examination of liver histopathology. The stained tissue sections were then observed and captured under an optical microscope for further analysis. Liver histological changes were quantified using a slightly modified scoring system published previously.[45] The scoring system comprised four histological features that were evaluated semi-quantitatively: necrosis and fibrosis (0–4), steatosis (0–3), lobular inflammation (0–2), and hepatocellular ballooning (0–2). The liver necrosis and fibrosis areas were quantified by area fraction analysis (Image J software, V1.8.0, National Institutes of Health, USA).[46]

C=C1CC[C@@H]2[C@](C)(CO)[C@H](O)CC[C@@]2(C)[C@@H]1C/C=C1/C(=O)OC[C@H]1O [AP, Andrographolide]
clustering of NF-κB pathway genes and JNK/MAPK pathway genes [1]: no significant differences | effect on ANIT-induced elevation of plasma biochemical indicators, liver cell necrosis, inflammatory cell infiltration ([2]; ABX mice (intestinal flora depleted), AP 200 mg/kg p.o., 2 weeks): markedly ameliorated | protective effect against ANIT-induced liver injury ([2]; Control mice with intact intestinal flora, AP 200 mg/kg p.o., 2 weeks): weak protective effect | anti-cholestatic effect ([2]; Fxr^-/- mice): completely abolished; also recorded: no protective effect | anti-cholestatic effect ([2]; WT mice): superior anti-cholestatic effect; also recorded: significant effects | alleviation of ANIT-induced cholestatic liver injury ([2]; mice, AP 200 mg/kg p.o. alone (inhibitor study)): did not exhibit significant alleviation | alleviation of ANIT-induced cholestatic liver injury ([2]; mice, AP 200 mg/kg p.o. in combination with APS reductase inhibitor bromocriptine mesylate 20 mg/kg p.o.): notable amelioration of liver injury | anti-cholestatic effect vs ANIT group ([2]; mice, intraperitoneal AP 100 mg/kg or 200 mg/kg): superior anti-cholestatic effect | hepatoprotective effect vs ANIT group ([2]; mice, oral AP 400 mg/kg): significant efficacy
